The values below come from ChEMBL document CHEMBL3046345, “Synthesis of novel pyrazole and pyrimidine derivatives bearing sulfonamide moiety as antitumor and radiosensitizing agents” (Med Chem Res, 2012).

One may read the IC50 as the concentration at which inhibition is half-maximal. A high value points to weaker potency in that assay.

Molecules are shown by their SMILES.

Test [1] deals with HepG2. In words: Potentiation of gamma-irradiation-induced cytotoxicity against Homo sapiens (human) HepG2 cells at 40 uM relative to control. The test is classed as functional.
In test [2] the test system is HepG2. Description: Anticancer activity against Homo sapiens (human) HepG2 cells after 48 hr by SRB assay. The test is classed as functional, cell-based. The settings on record: HepG2, 48 h. On the technique in general: Sulforhodamine B stains cellular protein and so reports cell mass.
Test [3] deals with HepG2. In words: Cytotoxicity against Homo sapiens (human) HepG2 cells at 25 uM relative to control. The test is classed as functional.
Test [4] concerns HepG2. Description: Potentiation of gamma-irradiation-induced cytotoxicity against Homo sapiens (human) HepG2 cells at 25 uM relative to control. The test is classed as functional.
The subject of test [5] is HepG2. Description: Potentiation of gamma-irradiation-induced cytotoxicity against Homo sapiens (human) HepG2 cells at 12.5 uM relative to control. It is filed as functional.
Test [6] deals with HepG2. Description: Cytotoxicity against Homo sapiens (human) HepG2 cells at 5 uM relative to control. The test is classed as functional.
The test system of test [7] is HepG2. Description: Cytotoxicity against Homo sapiens (human) HepG2 cells at 40 uM relative to control. It is filed as functional.
Test [8] deals with HepG2. In words: Potentiation of gamma-irradiation-induced cytotoxicity against Homo sapiens (human) HepG2 cells at 5 uM relative to control. The test is classed as functional.
A further test deals with MCF7. Description: Anticancer activity against Homo sapiens (human) MCF7 cells after 48 hr by SRB assay. It is filed as functional, cell-based. The conditions noted are these: MCF7, 48 h.
For test [9], the system named is HepG2. Description: Cytotoxicity against Homo sapiens (human) HepG2 cells at 12.5 uM relative to control. It is filed as functional.

For the molecule `NC1=NN(c2ccccc2)C(=O)/C1=C/Nc1ccc(S(=O)(=O)Nc2cnc3ccccc3n2)cc1`, the Activity in the test with HepG2 [1] amounted to 88.5%; with HepG2 [3], 76.15%; in the test on HepG2 [4] it was 93.5%; in the test on HepG2 [5], 77.8%; with HepG2 [6] it was 40.36%; with HepG2 [7], 79.39%. Besides, the Activity in the test with HepG2 [8] amounted to 57.1%; with HepG2 [9] it was 65.3%. The IC50 in the test with HepG2 [2] came out at 3.21 µM; in the test on MCF7 it was 6.71 µM.
On to `NC1=NN(c2ccccc2)C(=O)/C1=C/Nc1ccc(S(=O)(=O)Nc2ccccn2)cc1`, for which the Activity was determined as 91.8% with HepG2 [1]; 66.9% in the test on HepG2 [3]; 76.7% in the test on HepG2 [4]; 80.8% with HepG2 [5]; 39.49% in the test on HepG2 [6]; 80.2% in the test on HepG2 [7]. The values for the Activity in the test on HepG2 [8] and in the test on HepG2 [9] were 62.1% and 57.82%, respectively. The IC50 in the test on HepG2 [2] was found to be 3.49 µM; with MCF7 it was 5.1 µM.
Turning to `N=C1NN=C(N)/C1=C\Nc1ccc(S(=O)(=O)Nc2cnc3ccccc3n2)cc1`, the Activity is reported as 88.2% with HepG2 [1]; 73.2% in the test with HepG2 [3]; 80.6% in the test with HepG2 [4]; 67% with HepG2 [5]; 18.15% with HepG2 [6]; 85.8% in the test on HepG2 [7]. Besides, the Activity was determined as 53.6% in the test on HepG2 [8] and 55.27% in the test on HepG2 [9]. Besides, the IC50 in the test with HepG2 [2] is 3.22 µM; with MCF7, 7.78 µM.
On to `Cc1cc(C)nc(NS(=O)(=O)c2ccc(-n3cc(C#N)c(=O)n(-c4ccccc4)c3=S)cc2)n1`, for which the Activity is 87.3% in the test with HepG2 [1]; 62.2% in the test on HepG2 [3]; 77.5% in the test with HepG2 [4]; 70.8% in the test on HepG2 [5]; 19.98% in the test on HepG2 [6]; 79.6% in the test on HepG2 [7]. Besides, the figures for the Activity with HepG2 [8] and in the test with HepG2 [9] were 47.2% and 49.12%, respectively. For the same molecule, the IC50 turned out to be 3.49 µM in the test on HepG2 [2] and 5.63 µM with MCF7.
Regarding `Cc1cc(C)nc(NS(=O)(=O)c2ccc(N/C=C3/C(=N)N(c4ccccc4)N=C3N)cc2)n1`, the Activity in the test with HepG2 [1] came to 88.4%; with HepG2 [3] it was 74.3%; in the test with HepG2 [4], 92.9%; in the test with HepG2 [5], 86%; with HepG2 [6] it was 47.94%; with HepG2 [7], 80.7%. In addition, the Activity in the test with HepG2 [8] is 75.69%; in the test on HepG2 [9], 64.14%. Moreover, the results for the IC50 in the test on HepG2 [2] and with MCF7 were 3.76 µM and 6.98 µM, respectively.
